Measured values from patent US9593305B2, “Differentiation of pluripotent stem cells” (Janssen Biotech, Inc., priority 2008, dated 2017).

Assays:
[1] = system: H1 human embryonic stem cells; assay: Step-wise differentiation, FACS for CXCR4 after step 1 (Example 16); type: cell-based; settings: 100 ng/ml GDF-8 with compound on first day, compared to activin A and Wnt3a
Experimental: The assay was initiated by aspirating the culture medium from each well and adding back an aliquot (0.5 ml) of test medium. Test conditions for the first step of differentiation were conducted over a three-day period, feeding daily by aspirating and replacing the medium from each well with fresh test medium. On the first day of assay, 100 ng/ml activin A (PeproTech; Cat #120-14) or 100 ng/ml GDF-8 (R&D Systems, Cat #788-G8) was added to respective assay wells where each growth factor was diluted into RPMI-1640 medium (Invitrogen; Cat #: 22400) with 2% Albumin Bovine Fraction V, Fatty Acid Free (FAF BSA) (Proliant Inc. Cat #: SKU 68700), and 20 ng/ml Wnt3a (R&D Systems; Cat #1324-WN/CF). On the second day of assay, 100 ng/ml activin A or 100 ng/ml GDF-8 was diluted into RPMI-1640 medium supplemented with 2% FAF BSA without Wnt3a. In some test samples using GDF-8, Wnt3a was replaced with a small molecule compound, added only on the first day of definitive endoderm differentiation. These small molecules included Compound 19 (2.5 μM in assay), Compound 202 (2.5 μM in assay), Compound 40 (2.5 μM in assay), or a commercially available GSK3 inhibitor BIO (0.5 μM in assay) (EMD Chemicals, Inc.; Cat #361550). At the conclusion of the first step of differentiation, cells from some wells were harvested for flow cytometry analysis to evaluate levels of CXCR4, a marker of definitive endoderm formation. Additional wells were harvested for RT-PCR analysis to measure other markers of differentiation.
Cells for FACS analysis were blocked in a 1:5 solution of 0.5% human gamma-globulin (Sigma; Cat#G-4386) in PBS (Invitrogen; Cat #14040-133): BD FACS staining buffer—BSA (BD; Cat #554657) for 15 minutes at 4° C. Cells were then stained with antibodies for CD9 PE (BD; Cat #555372), CD99 PE (Caltag; #MHCD9904) and CXCR4 APC(R&D Systems; Cat#FAB 173A) for 30 minutes at 4° C. After a series of washes in BD FACS staining buffer, the cells were stained for viability with 7-AAD (BD; Cat #559925) and run on a BD FACSArray. […]

[2] = system: H1 human embryonic stem cells; assay: Definitive endoderm formation with TGF superfamily members, SOX17 and cell number (Example 14); type: cell-based; settings: growth factor with 20 ng/ml Wnt3a, three days
Experimental: Clusters were centrifuged at low speed to collect a cell pellet and remove residual dispase. […] All human embryonic stem cell lines were maintained at passage numbers less than 50 and routinely evaluated for normal karyotype and absence of mycoplasma.
Cells were washed again three times with PBS and blocked with 4% chicken serum (Invitrogen; Cat #16110082) in PBS for 30 minutes at room temperature. […] Plates were washed once with PBS and left in 100 μl/well PBS for imaging.

| Molecule | percentage of CXCR4 positive cells after step 1 [1] | SOX17 expression in combination with Wnt3a [2] |
| --- | --- | --- |
| C=CCN1CC(=O)NCCCc2cncc(c2)-c2ncnc(n2)Nc2cccc(c2)C1 [Compound 40, 14-Prop-2-en-1-yl-3,5,7,14,17,23,27-heptaazatetracyclo[19.3.1.1˜2.6˜0.1˜8,12˜]heptacosa-1(25), 2(27), 3,5,8(26), 9,11,21,23-nonaen-16-one] | equivalent or slightly higher percentage of CXCR4 positive cells | – |
| CN1CCC(=O)NCCCc2cncc(c2)-c2ncnc(n2)Nc2cccc(c2)C1 [Compound 19, 14-Methyl-3,5,7,14,18,24,28-heptaazatetracyclo[20.3.1.1˜2,6˜0.1˜8,12˜]octacosa-1(26), 2(28), 3,5,8(27), 9,11,22,24-nonaen-17-one] | equivalent or slightly higher percentage of CXCR4 positive cells | – |
| GDF-8: growth factor GDF-8, also known as myostatin, member of the TGF-β family | – | significant induction of SOX17 expression |
| Activin A: recombinant human activin A (PeproTech), TGF-beta family member | – | robust expression of SOX17 |
